Reference: patent US3932471A, “Azide” (priority 1973, dated 1976)

Key:
Assay type in all cases: in vivo
Spotted Cucumber Beetle = test: Systemic test against spotted cucumber beetle; conditions: Diabrotica undecimpunctata
Text: (§1) Systemic Test of Compound 7268 Against Lygus Bug and Spotted Cucumber Beetle
(§2) The techniques used are essentially the same for the systemic tests described above in Example 15. The test compound is Compound 7268. There is one Sieva bean plant per pot and five adult insects are caged on each plant. One plant is used for each test species.

Lygus Bug = test: Systemic test against Lygus bug
Text: as §1, §2

[1] = test system: Southern corn rootworm (Diabrotica undecimpunctata howardi); test: Soil activity against Southern corn rootworm; conditions: 120 h
Description: Activity of Compound 7268 Against Southern Corn Rootworm
The test organism is a strain of Southern corn rootworm (Diabrotica undecimpunctata howardi) resistant to chlorinated hydrocarbon insecticides and the test compound is Compound 7268. Duplicate samples of sand-soil mixtures are treated with appropriate volumes of test formulation to give the desired dosages. The sand-soil samples are in covered paper cups, and several hours after drenching, all cups are given a thorough shaking to provide complete and uniform mixing of the chemical throughout the soil. One day after treatment, two corn seedlings and five rootworms are placed into each cup and the lids replaced. Five days later, mortality is determined.

[2] = test system: melon aphid (Aphis gosyppi); test: Systemic activity against melon aphid; conditions: cucumber seedlings
Text: Systemic Activity of Compound 7268 Against Melon Aphid
The techniques used are essentially the same as for the systemic tests described above in Example 15. The test plants are cucumber seedlings; the test compound is Compound 7268; and the pest is the melon aphid (Aphis gosyppi).

[3] = test system: housefly (Musca domestica); test: Housefly spray test (HF); conditions: 72 h, contact activity rating, 50% mortality, three days
Description: (§3) The compounds are evaluated for biological activity against the following representative pests: Mexican bean beetle (Epilachna varivestis), Southern army worm (Prodenia eridania), housefly (Musca domestica), bean aphid (Aphis fabae), and red spider mite (Tetranychus sp.). The last two pests are treated both by contact and systemic application.
(§4) For purposes of comparison, results obtained with known Compound 7472, Compound 7577, and aldicarb are included in the test results. Each test compound is rated using the following scale:
This test determines the insecticidal activity of the compound being tested against adult houseflies, Musca domestica. Stock formulations containing 500 ppm of each test chemical are prepared using the procedure described in Example 15 and are diluted to obtain the appropriate lower concentrations.
Ten adult flies are placed in a cylindrical screen cage 11/2 by 4 inches fabricated from 20-mesh stainless steel screening and are sprayed with 50 ml of the stock or diluted formulation. The flies are supplied food and drink from a dextrose solution by draping a paper wick over the outside of the screen cylinder and are able to feed and drink ad libitum. Percent mortality obtained is determined three days after treatment. Results of this test are shown in Table 7 as HF (housefly spray test).

[4] = test system: Southern army worm (Prodenia eridania); test: Southern army worm spray test (AW); conditions: 72 h; contact activity rating, 50% mortality, three days
Description: as §3, §4
Southern Army Worm Spray Test
Paired fully expanded primary leaves excised from Scarlet runner bean plants are maintained in plastic tubes containing water and sprayed with the test formulation prepared as described in Example 15. After the spray deposit on the leaves is dry, the paired leaves are separated. One leaf is placed onto 1.5 percent water agar and infested with 10 newly hatched Southern army worm larvae. The covered test receptacle is held at 72° F for three days and then the percent mortality is determined. Results of this test are shown in Table 7 as AW (Southern army worm spray test).

[5] = test system: Mexican Bean Beetle Larvae; test: Residual systemic activity against Mexican bean beetle larvae; conditions: Epilachna varivestis
Text: Residual Systemic Activity of Compound 7268 Against Mexican Bean Beetle Larvae
Three furrows are opened in soil contained in 8 × 10 × 3 inch fiber pans and 12 Pinto bean seeds are evenly distributed in each furrow. The test compound is Compound 7268. Appropriate volumes of test formulation to give the desired dosages are applied over the seeds in the open furrows, and the furrows are immediately closed. At the indicated weekly intervals, one leaf is harvested from each row, placed onto water agar in a plastic Petri dish, and infested with 10 one-day-old bean beetle larvae. Mortality is determined three days later.

CNC(=O)ON=C(CSC)C(C)(C)C [Compound 7268, 3,3-dimethyl-2-methylcarbamyloximino-1-methylthiobutane]
60%: mortality at 2241.7 g/ha (Spotted Cucumber Beetle; 72 h) | % Mortality (Lygus Bug; 0.5 lb/A, 4 days)
30%: mortality at 1120.85 g/ha (Spotted Cucumber Beetle; 72 h)
100%: mortality at 1120.85 g/ha (Spotted Cucumber Beetle; 96 h) | mortality at 2241.7 g/ha (Spotted Cucumber Beetle; 96 h) | mortality at 1120.85 g/ha (Spotted Cucumber Beetle; 144 h) | mortality at 2241.7 g/ha (Spotted Cucumber Beetle; 144 h) | % Mortality (Lygus Bug; 1 lb/A, 6 days) | % Mortality (Lygus Bug; 2 lb/A, 3 days) | % Mortality (Lygus Bug; 2 lb/A, 4 days) | % Mortality (Lygus Bug; 2 lb/A, 6 days) | mortality at 1.25 lb/6" A [1] | mortality at 2.5 lb/6" A [1] | % Control ([2]; 0.062 lb/A) | % Control ([2]; 0.125 lb/A) | % Control ([2]; 0.25 lb/A) | % Control ([2]; 0.5 lb/A) | mortality at 280.212 g/ha ([5]; 504 h) | mortality at 560.425 g/ha ([5]; 504 h) | mortality at 1120.85 g/ha ([5]; 504 h) | mortality at 280.212 g/ha ([5]; 1176 h) | mortality at 560.425 g/ha ([5]; 1176 h) | mortality at 1120.85 g/ha ([5]; 1176 h) | mortality at 280.212 g/ha ([5]; 1680 h) | mortality at 560.425 g/ha ([5]; 1680 h)
40%: mortality at 560.425 g/ha (Spotted Cucumber Beetle; 96 h)
70%: mortality at 560.425 g/ha ([5]; 1848 h)
20%: mortality at 560.425 g/ha (Spotted Cucumber Beetle; 72 h)
> 500 µg/mL: LC50 [4]
0%: % Mortality (Lygus Bug; 0.5 lb/A, 3 days)
95%: mortality at 1120.85 g/ha ([5]; 1680 h) | mortality at 280.212 g/ha ([5]; 1848 h) | mortality at 1120.85 g/ha ([5]; 1848 h)
250 to 500 µg/mL: LC50 [3]
80%: mortality at 560.425 g/ha (Spotted Cucumber Beetle; 144 h) | % Mortality (Lygus Bug; 0.5 lb/A, 6 days) | % Mortality (Lygus Bug; 1 lb/A, 3 days) | % Mortality (Lygus Bug; 1 lb/A, 4 days)
90%: mortality at 1 lb/6" A [1]
